Earlier results, collected in article PMC8198792, “Prediction of Anticancer Peptides with High Efficacy and Low Toxicity by Hybrid Model Based on 3D Structure of Peptides” (International Journal of Molecular Sciences, 2021).
Where two headings read alike, the source gives them in different places.

Test system: cancer cell lines
Design: method as in 6 sources, ref CancerPPD [45] and SATPdb ||| ref CancerPPD/SATPdb ||| ref CancerPPD, SATPdb, Swissprot (PDB) ||| ref CancerPPD/SATPdb/Swissprot(PDB) ||| ref CancerPPD / SATPdb ||| ...
Conditions: cited from earlier work
Source text: Supplement ijms-22-05630-s001.zip/ACPs(seguence).xlsx, sheet "D1" | column: Activity || Supplement ijms-22-05630-s001.zip/ACPs(seguence).xlsx, sheet "D2" | column: Activity || Supplement ijms-22-05630-s001.zip/ACPs(seguence).xlsx, sheet "D3" | column: Activity || (+ 2 further places)

[1] = ACPs dataset D3 (supplement sheet "D3"), 1 = ACP, 0 = non-ACP, ref CancerPPD [45] and SATPdb
[2] = ACPs dataset D4 (sheet "D4"), label 1 = ACP, experimentally validated ACPs, ref CancerPPD [45] and SATPdb
[3] = ACPs dataset D5 (sheet "D5"), label 1 = ACP (positive set), sequences with CancerPPD/SATPdb ID, ref CancerPPD, SATPdb
[4] = ACPs dataset D2 (supplement ACPs(seguence).xlsx, sheet D2), dataset label 1/0 (ACP / non-ACP), entries identified by Swissprot(PDB ID), ref CancerPPD/SATPdb/Swissprot(PDB)
[5] = ACPs dataset D5, sheet "D5", label 1 = ACP, 0 = non-ACP, ref CancerPPD [45] and SATPdb
[6] = ACPs dataset D1, label 1 = ACP, 0 = non-ACP (non-anticancer AMPs from SATPdb), ref CancerPPD/SATPdb
[7] = ACPs dataset D4 (sheet "D4"), label 1 = ACP, 0 = non-ACP, ref CancerPPD / SATPdb
[8] = ACPs dataset D1, 1 = ACP (positive), 0 = non-ACP (negative), label taken from databases, ref CancerPPD [45] and SATPdb
[9] = ACPs dataset sheet D2, 1 = ACP (CancerPPD/SATPdb ID), 0 = non-ACP (Swissprot/PDB ID), ref CancerPPD, SATPdb, Swissprot (PDB)
[10] = ACPs dataset D3 (sheet "D3"), label 1 = ACP, 0 = non-ACP, ref CancerPPD/SATPdb
[11] = ACPs dataset D5 (sheet "D5"), label 1 = ACP (positive set), 0 = non-ACP (negative set), ref CancerPPD [45] and SATPdb
[12] = ACPs dataset D4 (sheet "D4"), label 1 = ACP (CancerPPD ID), 0 = non-ACP (non-anticancer AMP, SATPdb ID), ref CancerPPD [45] and SATPdb

FAKKLAKLAKKLAKLAL [compound 1787]
Activity [1]: 1
Activity [2]: 1
Activity [3]: 1

FAKKLAKLAKKLLAL [compound 1790]
Activity [1]: 1
Activity [2]: 1
Activity [3]: 1

FAKLA [compound 1859]
Activity [1]: 1
Activity [2]: 1
Activity [3]: 1

FDVNSHTTPCGPVTCSGAQMCEVDKCVCSDLHCKVKCEHGFKKDDNGCEYACICADAPQ [1EJA X-ray 2.70 B 1-59]
Activity [4]: 0
Activity [5]: 0

FFGTALKIAANVLPTAICKILKKC [satpdb13355]
Activity [6]: 0
Activity [7]: 0

FFGWLIKGAIHAGKAIHGLIHRRRH [compound 4436]
Activity [8]: 1
Activity [2]: 1
Activity [3]: 1
Activity [9]: 1

FFHHIFRGIVHVGKTIHRLVTG [compound 4437]
Activity [8]: 1
Activity [2]: 1
Activity [3]: 1
Activity [9]: 1

FFPIVGKLLFGLL [satpdb13027]
Activity [10]: 0
Activity [7]: 0
Activity [5]: 0

FHVPDDRPCINPGRCPLVPDATCTFVCKAADNDFGYECQHVWTFEGQRVGCYA [5MRV X-ray 1.85,C,1-53]
Activity [4]: 0
Activity [5]: 0

FIHHIFRGIVHAGRSIGRFLTG [2MCW NMR - A 1-22]
Activity [11]: 0
Activity [9]: 0

FISAIASFLGKFL [satpdb11448]
Activity [6]: 0
Activity [12]: 0

FKCRRWQWRMKKLGA [compound 1111]
Activity [1]: 1
Activity [2]: 1
Activity [3]: 1

FKCRRWQWRMKKLGAPSITCVR [compound 1352]
Activity [8]: 1
Activity [2]: 1
Activity [3]: 1
Activity [9]: 1

FKIPPIVKDTLKKFFKGGIAGVMGQ [satpdb10550]
Activity [8]: 0
Activity [12]: 0

FKLFKKIPKFLHLAKKF [compound 1124]
Activity [1]: 1
Activity [2]: 1
Activity [3]: 1

FKRiVQRiKDFlRNLV [compound 1530]
Activity [1]: 1
Activity [2]: 1
Activity [3]: 1

FLGALAKIISGIF [satpdb11200]
Activity [8]: 0
Activity [12]: 0

FLGALFHALSKLL [compound 3266]
Activity [8]: 1
Activity [2]: 1
Activity [3]: 1
Activity [9]: 1

FLGALLGPLMNLLQ [satpdb14038]
Activity [10]: 0
Activity [7]: 0
Activity [5]: 0

FLGGLMKAFPAIICAVTKKC [satpdb13214]
Activity [6]: 0
Activity [7]: 0

FLGMIPGLIGGLISAFK [compound 3125]
Activity [1]: 1
Activity [2]: 1
Activity [3]: 1

FLGMIPKLIKKLIKAFK [compound 3135]
Activity [1]: 1
Activity [2]: 1
Activity [3]: 1

FLGWLFKWAWK [compound 1722]
Activity [1]: 1
Activity [2]: 1
Activity [3]: 1

FLKDHRISTFKNWPF [satpdb15356]
Activity [8]: 1
Activity [2]: 1
Activity [3]: 1
Activity [9]: 1

FLKLLKKLAAKLF [compound 1005]
Activity [8]: 1
Activity [2]: 1
Activity [3]: 1
Activity [9]: 1

FLKWLFKWAKK [compound 1716]
Activity [1]: 1
Activity [2]: 1
Activity [3]: 1

FLPAIAGMAAKFLPKIFCAISKKC [satpdb12699]
Activity [6]: 0
Activity [7]: 0

FLPAIVGAAAKFLPKIFCAISKKC [compound 4356]
Activity [8]: 1
Activity [2]: 1
Activity [3]: 1
Activity [9]: 1

FLPAVLRVAAQVVPTVFCAISKKC [satpdb11368]
Activity [8]: 0
Activity [12]: 0

FLPFIARLAAKVFPSIICSVTKKC [satpdb10560]
Activity [8]: 0
Activity [12]: 0

FLPIIAGAAAKVVEKIFCAISKKC [compound 4357]
Activity [8]: 1
Activity [2]: 1
Activity [3]: 1
Activity [9]: 1

FLPIIAGIAAKFLPKIFCTISKKC [compound 4359]
Activity [8]: 1
Activity [2]: 1
Activity [3]: 1
Activity [9]: 1

FLPIIASVAANVFSKIFCAISKKC [satpdb10458]
Activity [8]: 0
Activity [12]: 0

FLPIIGQLLSGLL [satpdb10701]
Activity [1]: 0
Activity [7]: 0
Activity [5]: 0

FLPIVGRLISGLL [satpdb10939]
Activity [1]: 0
Activity [7]: 0
Activity [5]: 0

FLPKTLRKFFCRIRGGRCAVLNCLGKEEQIGRCSNSGRKCCRKKK [satpdb12338]
Activity [6]: 0
Activity [12]: 0

FLPLIASVAANLAPKIICKITKTC [satpdb12152]
Activity [6]: 0
Activity [12]: 0

FLPLIGKILGTILGK [satpdb11777]
Activity [6]: 0
Activity [12]: 0

FLPMLAGLAASMVPKLVCLITKKC [satpdb11064]
Activity [8]: 0
Activity [12]: 0

FLPVIAGLAAKVLPKLFCAITKKC [satpdb12195]
Activity [6]: 0
Activity [12]: 0

FLPVIAGVAANFLPKLFCAISKKC [compound 4361]
Activity [8]: 1
Activity [2]: 1
Activity [3]: 1
Activity [9]: 1

FLPVVAGLAAKVLPSIICAVTKKC [satpdb12902]
Activity [6]: 0
Activity [7]: 0

FLSLIPHAIN AVSAIAKHN [2JQ0 NMR - A 1-19]
Activity [11]: 0
Activity [9]: 0

FLSLIPSLVGGSISAFK [compound 3123]
Activity [1]: 1
Activity [2]: 1
Activity [3]: 1

FLSSIGKILGNLL [satpdb11843]
Activity [6]: 0
Activity [12]: 0

FLWWLFKWAWK [compound 1728]
Activity [8]: 1
Activity [1]: 1
Activity [2]: 1
Activity [3]: 1
Activity [9]: 1

FVDLKKIANIINSIF [compound 2851]
Activity [1]: 1
Activity [12]: 1
Activity [11]: 1

FVQWFSKFLGRIL [6GS5 NMR - A 1-13]
Activity [11]: 0

GAIKDALKGAAKTVAVELLKKAQCKLEKTC [satpdb13113]
Activity [6]: 0
Activity [7]: 0

GASCGETCFTGICFTAGCSCNPWPTCTRN [compound 4369]
Activity [8]: 1
Activity [2]: 1
Activity [3]: 1
Activity [9]: 1

GCPRILMRCKQDSDCLAGCVCGPNGFCGSP [1H9H X-ray 1.50 I 1-30]
Activity [11]: 0
Activity [9]: 0

GCSRWIIGIHGQICRD [satpdb12437]
Activity [6]: 0
Activity [12]: 0

GCVLYPWC [2M6C NMR - A 1-8]
Activity [11]: 0
Activity [9]: 0

GDVIDTDRDIDR [satpdb14246]
Activity [8]: 1
Activity [2]: 1
Activity [3]: 1
Activity [9]: 1

GECEQCFSDGGDCTTCFNNGTGPCANCLAGYPAGCSNSDCTAFLSQCYGGC [1HA8 NMR - A 1-51]
Activity [4]: 0
Activity [5]: 0

GFGCPFNQYECHAHCSGVPGYKGGYCKGLFKQTCNCY [satpdb12844]
Activity [6]: 0
Activity [7]: 0

GFGCPGNQLKCNNHCKSISCRAGYCDAATLWLRCTCTDCNGKK [satpdb11046]
Activity [8]: 0
Activity [12]: 0

GFGMALKLLKKVL [compound 3586]
Activity [1]: 1
Activity [12]: 1
Activity [11]: 1

GFGMALOLLOOVL [compound 3597]
Activity [1]: 1
Activity [12]: 1
Activity [11]: 1

GFGMALRLLRRVL [compound 3598]
Activity [1]: 1
Activity [12]: 1
Activity [11]: 1

GFHDHGPCDPPSHK [satpdb16441]
Activity [8]: 1
Activity [2]: 1
Activity [3]: 1
Activity [9]: 1

GFKDLLKGAAKALVKTVLF [compound 4388]
Activity [8]: 1
Activity [2]: 1
Activity [3]: 1
Activity [9]: 1

GFLDTFKNLALNAAKSAGVSVLNSLSCKLFKTC [satpdb12796]
Activity [6]: 0
Activity [7]: 0

GFLSILKKVLP [satpdb11215]
Activity [8]: 0
Activity [12]: 0

GFSPNLPGKGLRIS [satpdb13263]
Activity [6]: 0
Activity [7]: 0
